Source: ChEMBL document CHEMBL1201862, “PubChem BioAssay data set” (2004)
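In this assay, cells in 96-well plates receive the compound at five concentrations for 48 hours. Endpoints are linearly interpolated between the surrounding concentrations. GI50 = concentration required for 50% inhibition of growth.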 Calls of active or inactive are those of the source. No stated cut-off is given here; in the data, active = GI50 up to about 1.1 µM and inactive = higher.

Columns and labels:
Test in all cases: DTP human tumour cell line panel, 48 h
SK-MEL-28 = tested on: SK-MEL-28
HT-29 = tested on: HT-29
NCI-H522 = tested on: NCI-H522
MCF7 = tested on: MCF7
HL-60 = tested on: HL-60
HCT-15 = tested on: HCT-15
TK-10 = tested on: TK-10
SK-MEL-2 = tested on: SK-MEL-2
SW-620 = tested on: SW-620
UACC-257 = tested on: UACC-257
786-0 = tested on: 786-0
HCT-116 = tested on: HCT-116
NCI-H226 = tested on: NCI-H226
IGROV-1 = tested on: IGROV-1
NCI-H23 = tested on: NCI-H23
Hs-578T = tested on: Hs-578T
OVCAR-3 = tested on: OVCAR-3
SF-295 = tested on: SF-295
SNB-75 = tested on: SNB-75
SF-539 = tested on: SF-539

SMILES	GI50 (SK-MEL-28)	GI50 (HT-29)	GI50 (NCI-H522)	GI50 (MCF7)	GI50 (HL-60)	GI50 (HCT-15)	GI50 (TK-10)	GI50 (SK-MEL-2)	GI50 (SW-620)	GI50 (UACC-257)	GI50 (786-0)	GI50 (HCT-116)	GI50 (NCI-H226)	GI50 (IGROV-1)	GI50 (NCI-H23)	GI50 (Hs-578T)	GI50 (OVCAR-3)	GI50 (SF-295)	GI50 (SNB-75)	GI50 (SF-539)
NC12CC3CC4C1CC1CC2C(C3)C4(N)C1	> 100 µM (inactive)	> 100 µM (inactive)	> 100 µM (inactive)	> 100 µM (inactive)	> 100 µM (inactive)	> 100 µM	50.7 µM (inactive)	> 100 µM (inactive)	> 100 µM (inactive)	> 100 µM (inactive)	> 100 µM (inactive)	> 100 µM (inactive)	> 100 µM (inactive)	> 100 µM (inactive)	> 100 µM (inactive)	> 100 µM (inactive)	> 100 µM (inactive)	> 100 µM (inactive)	–	–
COc1ccc(CNc2nc(NCc3ccc(OC)cc3)nc(NC3CCCC3)n2)cc1	10.9 µM (inactive)	3.04 µM (inactive)	2.99 µM (inactive)	3.31 µM (inactive)	3.34 µM (inactive)	3.19 µM	3.26 µM (inactive)	–	4.14 µM (inactive)	12 µM (inactive)	4.05 µM (inactive)	2.64 µM (inactive)	5.07 µM (inactive)	13.4 µM (inactive)	2.99 µM (inactive)	3.07 µM (inactive)	2.76 µM (inactive)	2.18 µM (inactive)	16.4 µM (inactive)	2.75 µM (inactive)
CCOC(=O)NN(C(=O)OCC)C(C(=O)c1ccccc1)N(NC(=O)OCC)C(=O)OCC	> 100 µM (inactive)	> 100 µM (inactive)	> 100 µM (inactive)	> 100 µM (inactive)	> 100 µM (inactive)	> 100 µM	> 100 µM (inactive)	–	> 100 µM (inactive)	> 100 µM (inactive)	> 100 µM (inactive)	> 100 µM (inactive)	> 100 µM (inactive)	> 100 µM (inactive)	> 100 µM (inactive)	> 100 µM (inactive)	> 100 µM (inactive)	> 100 µM (inactive)	> 100 µM (inactive)	> 100 µM (inactive)
CCCN(CCC)CCc1ccc(OC2=CCN(C)CC2)cc1	35.3 µM (inactive)	16 µM (inactive)	21.1 µM (inactive)	> 100 µM (inactive)	35.8 µM (inactive)	36.9 µM	87.3 µM (inactive)	> 100 µM (inactive)	> 100 µM (inactive)	20.3 µM (inactive)	39.9 µM (inactive)	39.8 µM (inactive)	> 100 µM (inactive)	67.3 µM (inactive)	> 100 µM (inactive)	40.6 µM (inactive)	79.3 µM (inactive)	> 100 µM (inactive)	–	–
COC1=CC(=O)C2=C(C[C@@]3(C)C(=C2)C(CO)=CC[C@H]3O)C1=O	29.6 µM (inactive)	46.1 µM (inactive)	–	16 µM (inactive)	1.79 µM (inactive)	27.5 µM	98.2 µM (inactive)	–	25.3 µM (inactive)	18.6 µM (inactive)	20.7 µM (inactive)	18.7 µM (inactive)	14 µM (inactive)	14.6 µM (inactive)	20.4 µM (inactive)	30.9 µM (inactive)	24.9 µM (inactive)	22 µM (inactive)	–	18.8 µM (inactive)
COc1ccc(C2C=C(c3ccc4c(c3)OCO4)Oc3c2c(=O)oc2ccccc32)cc1OC (stereo unspecified)	> 93.1 µM (inactive)	0.402 µM (active)	0.303 µM (active)	0.434 µM (active)	0.248 µM (active)	0.415 µM	–	–	0.468 µM (active)	–	0.43 µM (active)	0.482 µM (active)	0.258 µM (active)	0.634 µM (active)	0.446 µM (active)	0.513 µM (active)	0.475 µM (active)	0.279 µM (active)	0.344 µM (active)	0.308 µM (active)
Oc1ccc(O)c(Cc2ccccc2)c1	33.7 µM (inactive)	37 µM (inactive)	–	15 µM (inactive)	1.52 µM (inactive)	13.6 µM	21.7 µM (inactive)	18.7 µM (inactive)	21.3 µM (inactive)	25.9 µM (inactive)	14.7 µM (inactive)	–	19.6 µM (inactive)	–	26.4 µM (inactive)	31.9 µM (inactive)	1.07 µM (active)	56.1 µM (inactive)	–	10.7 µM (inactive)
O=[N+]([O-])c1ccc2c(c1)c(S(=O)(=O)O)cc1nonc12	> 100 µM (inactive)	> 100 µM (inactive)	> 100 µM (inactive)	> 100 µM (inactive)	> 100 µM (inactive)	> 100 µM	> 100 µM (inactive)	> 100 µM (inactive)	> 100 µM (inactive)	> 100 µM (inactive)	> 100 µM (inactive)	> 100 µM (inactive)	> 100 µM (inactive)	> 100 µM (inactive)	> 100 µM (inactive)	> 100 µM (inactive)	> 100 µM (inactive)	> 100 µM (inactive)	–	> 100 µM (inactive)
COc1ccc(/C=C/c2ccnc3ccccc23)cc1	14.5 µM (inactive)	10.4 µM (inactive)	17.5 µM (inactive)	15.6 µM (inactive)	6.78 µM (inactive)	18.1 µM	16.2 µM (inactive)	20.3 µM (inactive)	17.7 µM (inactive)	15.3 µM (inactive)	16.8 µM (inactive)	15.7 µM (inactive)	21.9 µM (inactive)	17.3 µM (inactive)	12.7 µM (inactive)	22.6 µM (inactive)	13.4 µM (inactive)	16.9 µM (inactive)	–	21.8 µM (inactive)
COc1cc2c(cc1OCCCN1CCN(C)CC1)N=C[C@@H]1CCCN1C2=O	1.9 µM (inactive)	1.74 µM (inactive)	0.179 µM (active)	1.22 µM (inactive)	1.41 µM (inactive)	2.25 µM	3.34 µM (inactive)	2.42 µM (inactive)	1.41 µM (inactive)	2.5 µM (inactive)	3.4 µM (inactive)	2.7 µM (inactive)	1.93 µM (inactive)	–	–	5.12 µM (inactive)	2.06 µM (inactive)	2 µM (inactive)	–	2.19 µM (inactive)
Cc1cn(C(CO)OC(CO)CN(O)C2C3CC4CC(C3)CC2C4)c(=O)[nH]c1=O (stereo unspecified)	> 100 µM (inactive)	> 100 µM (inactive)	–	> 100 µM (inactive)	> 100 µM (inactive)	> 100 µM	> 100 µM (inactive)	> 100 µM (inactive)	> 100 µM (inactive)	> 100 µM (inactive)	> 100 µM (inactive)	> 100 µM (inactive)	> 100 µM (inactive)	> 100 µM (inactive)	> 100 µM (inactive)	> 100 µM (inactive)	–	> 100 µM (inactive)	> 100 µM (inactive)	> 100 µM (inactive)
CC(C)(C)OC(=O)NC1CCCCC1NC(=O)C(=O)NC1CCCCC1NC(=O)OC(C)(C)C (stereo unspecified)	> 100 µM (inactive)	> 100 µM (inactive)	66.5 µM (inactive)	> 100 µM (inactive)	> 100 µM (inactive)	> 100 µM	37.6 µM (inactive)	59 µM (inactive)	> 100 µM (inactive)	> 100 µM (inactive)	34.7 µM (inactive)	78.2 µM (inactive)	> 100 µM (inactive)	> 100 µM (inactive)	> 100 µM (inactive)	16.9 µM (inactive)	> 100 µM (inactive)	29.1 µM (inactive)	–	45.4 µM (inactive)
